According to patent US5457030A, “Method and composition for determining antimicrobial susceptibility of the majority clinically significant Gram postitive organism” (MicroScan, Inc., priority 1993, dated 1995):
In brackets after ≈: the same amount, converted by molar mass. Read-outs that look alike come from different tables or passages of the source.

Key:
[1] = system: Enterococcus faecalis; assay: Minimum inhibitory concentration determination, Example 1 (Table 7); format: cell-based
Method: (§1) A primary inoculum suspension of a bacterial isolate in saline-pluronic, equivalent to a 0.5 McFarland turbidity standard is prepared. The final inoculum suspension is prepared by diluting a 0.3 ml aliquot of the primary suspension in 25 ml of Rapid Pos Inoculum Broth (B1015-14, Baxter Diagnostics Inc., MicroScan Division, West Sacramento, Calif.). A 115 μl of the final inoculum is added to the growth compartment which contains dried material of fluorogenic enzyme substrates equivalent to 0.023 mM leucine-7-amido-4-methylcoumarin, 0.012 mM phenylalanine-7-amido-4-methylcoumarin and 0.058 mM methylumbelliferyl phosphate and 1.15 mM HEPES buffer at pH 7.0. The final inoculum is also added to a number of compartments containing dried material identical to that in the growth well and different concentrations of an antimicrobial agent. An aliquot of the final inoculum is also added to a compartment, containing only dried HEPES buffer, acting as a control. The inoculated multicompartment device (panel) is inserted in the autoSCAN®-W/A. The fluorescence of each compartment is measured at predetermined times and a Growth Index is calculated by dividing the fluorescence of the growth compartment by that of the negative control compartment.
(§2) If the value of the Growth Index is equal to or exceeds a specified value, the Minimum Inhibitory Concentration for every antimicrobial agent present in the multicompartment device is calculated. Otherwise the device is returned to its position and measured again at the next read time. The read times in this example are 3.5, 4.5, 5.5, 7.0, 8.0, 11.0, and 15.0 hours. For calculation of minimum inhibitory concentration, the percent fluorescence of compartments containing the different concentrations of the antimicrobial agent is calculated by subtracting from each compartment the fluorescence of the control well and dividing it by the delta fluorescence of the growth compartment, obtained by subtracting the fluorescence of the negative control compartment from the fluorescence of the growth compartment. The minimum inhibitory concentration is calculated using a mathematical model specific for each concentration range of the antimicrobial agent. Using a mathematical model based on discriminate functional analysis, the minimum inhibitory concentration of each antimicrobial agent, for the organism tested, can be determined. Utilization of a discriminate function analysis model in microbiological pattern recognition is described in S. Bascomb, Computers in Taxonomy and Systematics, p. 65-102 In T. N. Bryant and J. W. T. Wimpenny (Ed.), Computers in Microbiology, a Practical Approach (IRL Press, Oxford). In an alternative embodiment the minimum inhibitory concentration for each antimicrobial agent for the organism tested can be determined by a breakpoint or threshold method or linear regression analysis. J. McKie, et al., Antimicrobial Agents and Chemotherapy (1980) v. 17, 813-823.
(§3) In Example 1, the growth of Enterococcus faecalis in wells containing specified amounts of antimicrobial agents is estimated by measurement of fluorescence. In Table 6, the percent fluorescence at different concentrations of antimicrobial agents is reported. For example, 0.12, 0.25, 0.5, 1, 2, 4 and 8 μg/mL of ampicillin (Am) were present in the microdilution wells.
In Table 7, the minimum inhibitory concentration for Example 1 are reported.

[2] = system: Enterococcus faecalis; assay: Percent fluorescence (growth) in wells containing antimicrobial agents, Example 1 (Table 6); format: cell-based
Method: as §1
^FL growth - ^FL control
as §2, §3
The numbers 105, 105, 67, 7, 6, 5, 6 are percent fluorescence values as calculated in […]. These figures are used to determine susceptibility according to the methods discussed on pages 12 and 13.

[3] = Enterococcus faecalis, read-out: concentration at which organism was found to be susceptible
[4] = Enterococcus faecalis, read-out: minimum inhibitory concentration
[5] = Enterococcus faecalis, read-out: percent fluorescence
[6] = Enterococcus faecalis, Table 7, Example 1, read-out: concentration at which organism was found to be susceptible
[7] = Table 7, Enterococcus faecalis, Example 1, read-out: minimum inhibitory concentration
[8] = Enterococcus faecalis, 4 μg/mL, read-out: percent fluorescence
[9] = Enterococcus faecalis, 8 μg/mL, read-out: percent fluorescence

Compound	MIC [1, 3]	MIC [1, 4]	activity at 0.5 µg/mL [2, 5]	activity at 1 µg/mL [2, 5]	activity at 2 µg/mL [2, 5]	activity at 4 µg/mL [2, 5]	activity at 8 µg/mL [2, 5]	further results
CC[C@H]1OC(=O)[C@H](C)[C@@H](O[C@H]2C[C@@](C)(OC)[C@@H](O)[C@H](C)O2)[C@H](C)[C@@H](O[C@@H]2O[C@H](C)C[C@H](N(C)C)[C@H]2O)[C@](C)(O)C[C@@H](C)C(=O)[C@H](C)[C@@H](O)[C@]1(C)O [Erythromycin]	4 µg/mL (≈ 5.45 µM)	4 µg/mL (≈ 5.45 µM)	9%	5%	5%	4%	–	activity at 0.25 µg/mL [2, 5]: 59%
C[C@@H](O)[C@H]1C(=O)N2C(C(=O)O)=C(SCCN=CN)C[C@H]12 [Imipenem]	–	–	–	–	–	–	–	MIC [1, 6]: 4 µg/mL (≈ 13.4 µM); MIC [1, 7]: 4 µg/mL (≈ 13.4 µM); activity at 1 µg/mL ([2]; Enterococcus faecalis, 1 μg/mL, read-out: percent fluorescence): 65%; activity at 2 µg/mL ([2]; Enterococcus faecalis, 2 μg/mL, read-out: percent fluorescence): 5%; activity at 4 µg/mL [2, 8]: 5%; activity at 8 µg/mL [2, 9]: 5%
O=C1CN(/N=C/c2ccc([N+](=O)[O-])o2)C(=O)N1 [Nitrofurantoin]	–	–	–	–	–	–	–	MIC [1, 6]: < 32 µg/mL; MIC [1, 7]: < 32 µg/mL; activity at 32 µg/mL ([2]; Enterococcus faecalis, 32 μg/mL): 86%; activity at 46 µg/mL ([2]; Enterococcus faecalis, 46 μg/mL (printed 46Fd)): 21%
CCn1cc(C(=O)O)c(=O)c2cc(F)c(N3CCNCC3)cc21 [Norfloxacin]	–	–	–	–	–	–	–	MIC [1, 6]: < 4 µg/mL; MIC [1, 7]: < 4 µg/mL; activity at 4 µg/mL [2, 8]: 6%; activity at 8 µg/mL [2, 9]: 6%
Cc1onc(-c2ccccc2)c1C(=O)N[C@@H]1C(=O)N2[C@@H]1SC(C)(C)[C@@H]2C(=O)O [Oxacillin]	–	–	98%	100%	99%	95%	90%	activity at 0.25 µg/mL [2, 5]: 103%
CC1(C)S[C@@H]2[C@H](NC(=O)Cc3ccccc3)C(=O)N2[C@H]1C(=O)O [Penicillin]	–	–	105%	93%	12%	7%	7%	activity at 0.03 µg/mL [2, 5]: 99%; activity at 0.06 µg/mL [2, 5]: 104%; activity at 0.12 µg/mL [2, 5]: 105%; activity at 25 µg/mL [2, 5]: 105%
CO[C@H]1/C=C/O[C@@]2(C)Oc3c(C)c(O)c4c(O)c(c(/C=N/N5CCN(C)CC5)c(O)c4c3C2=O)NC(=O)/C(C)=C\C=C\[C@H](C)[C@H](O)[C@@H](C)[C@@H](O)[C@@H](C)[C@H](OC(C)=O)[C@@H]1C [Rifampin]	2 µg/mL (≈ 2.43 µM)	2 µg/mL (≈ 2.43 µM)	–	58%	21%	–	–	–
CN[C@@H]1[C@H](O[C@H]2[C@H](O[C@H]3[C@H](O)[C@@H](O)[C@H](N=C(N)N)[C@@H](O)[C@@H]3N=C(N)N)O[C@@H](C)[C@]2(O)C=O)O[C@@H](CO)[C@H](O)[C@H]1O [Streptomycin Synergy Screen]	–	–	–	–	–	–	–	Streptomycin Synergy Screen result in Table 7 ([1]; Table 7, Enterococcus faecalis, Example 1): 5; susceptibility to synergy screen ([1]; Table 7, Example 1): susceptible; percent fluorescence ([2]; synergy screen well): 5%
CN(C)C1C(=O)C(C(N)=O)=C(O)C2(O)C(=O)C3=C(O)c4c(O)cccc4C(C)(O)C3CC12 (centres unmarked) [Tetracycline]	128 µg/mL (≈ 288 µM)	128 µg/mL (≈ 288 µM)	91%	85%	79%	71%	62%	activity at 128 µg/mL [2, 5]: 37%
CN[C@H](CC(C)C)C(=O)N[C@H]1C(=O)N[C@@H](CC(N)=O)C(=O)N[C@H]2C(=O)N[C@H]3C(=O)N[C@H](C(=O)N[C@H](C(=O)O)c4cc(O)cc(O)c4-c4cc3ccc4O)[C@H](O)c3ccc(c(Cl)c3)Oc3cc2cc(c3O[C@@H]2O[C@H](CO)[C@@H](O)[C@H](O)[C@H]2O[C@H]2C[C@](C)(N)[C@H](O)[C@H](C)O2)Oc2ccc(cc2Cl)[C@H]1O [Vancomycin]	< 2 µg/mL	< 2 µg/mL	–	–	5%	5%	5%	activity at 16 µg/mL [2, 5]: 2%
Gentamicin	–	–	–	–	–	–	–	percent fluorescence ([2]; 1 μg/mL): 105%; percent fluorescence ([2]; 2 μg/mL): 99%; percent fluorescence ([2]; 4 μg/mL): 95%; percent fluorescence ([2]; 6 μg/mL): 93%; percent fluorescence ([2]; 8 μg/mL): 93%
